This is an account of results in ChEMBL document CHEMBL2069272, “Leishmanicidal activities and cytotoxicities of bisnaphthoquinone analogues and naphthol derivatives from Burman Diospyros burmanica” (Bioorg Med Chem, 2012).

The subject of one series is Leishmania major. The series is described as follows: Antileishmanial activity against Leishmania major promastigotes incubated for 48 hrs by MTT assay. In kind it is functional, organism-based.
Series [1] in a line: Toxicity against mouse RAW264.7 cells by XTT assay. In kind it is cell-based.
A short description of series [2]: Selectivity index, ratio of IC50 for mouse RAW264.7 cells to IC50 for Leishmania major promastigotes. Conditions: RAW264.7 cells versus Leishmania major promastigotes, read-out: Ratio IC50. In kind it is toxicity, cell-based.

Residues, ends and D or L forms follow the SMILES beside them. *: point of attachment. Cbz = O=C(OCc1ccccc1)*

Take `COc1cccc2c1C(=O)C=C(C)C2=O`: the IC50 in the series with Leishmania major came out at 3.3 µM; in series [1], 45 µM. For the same compound, the selectivity ratio in series [2] was 13.6.

As for `COc1c(C)cc(O)c2c(OC)cccc12`, the IC50 (in the series on Leishmania major; in series [1]) was more than 100 µM in each case.

`COc1c(C)cc2cccc(OC)c2c1O`: the 50% inhibitory concentration (IC50) is 45 µM in the series with Leishmania major and more than 100 µM in series [1]. In addition, the selectivity ratio in series [2] was more than 2.22.

`COc1cccc2cc(C)cc(O)c12`: the IC50 in the series on Leishmania major was 50 µM; in series [1] it was more than 100 µM. Further, in series [2], the selectivity ratio is more than 2.

On to `COc1ccc(OC)c2c(O)cc(C)cc12`, for which the figures for the concentration for half-maximal inhibition (IC50) (in the series on Leishmania major; in series [1]) were 38 µM and more than 100 µM, respectively. Besides, in series [2], the selectivity ratio was more than 2.63.

As for `COc1cccc2c1C(=O)C(O)=C(C)C2=O`, the IC50 (in the series with Leishmania major; in series [1]) was more than 100 µM each time.

As to `COc1ccc(OC)c2c1C(=O)C=C(C)C2=O`, the concentration for half-maximal inhibition (IC50) in series [1] is more than 100 µM.

As to `COc1cccc2cc(C=O)cc(O)c12`, the IC50 (in the series with Leishmania major; in series [1]) was more than 100 µM in each case.

Consider `COc1c(O)ccc2c1C(=O)C(C)=CC2=O`, for which the IC50 in the series on Leishmania major is 93 µM; in series [1], 96 µM. The selectivity ratio in series [2] stood at 1.03.

`C[C@@H]1[C@H](O)[C@@H](C)/C=C/C=C/C=C/C=C/C=C/C=C/C=C/[C@H](O[C@@H]2O[C@H](C)[C@@H](O)[C@H](N)[C@@H]2O)C[C@@H]2O[C@](O)(C[C@@H](O)C[C@@H](O)[C@H](O)CC[C@@H](O)C[C@@H](O)CC(=O)O[C@H]1C)C[C@H](O)[C@H]2C(=O)O` [AMPHOTERICIN B] came in with an IC50 with Leishmania major of 0.035 µM. This lies in the double-digit nanomolar range.

`COc1cc(C)cc2c1C(=O)C=C(C1=C(C)C(=O)c3ccc(O)c(OC)c3C1=O)C2=O` [BURMANIN A]: the IC50 was 0.053 µM in the series with Leishmania major and 24 µM in series [1]. Also, the selectivity ratio in series [2] was 453.

In the case of `COc1cc(C)cc2c1C(=O)C=C(c1c(C)cc3ccc(O)c(OC)c3c1O)C2=O` [BURMANIN B], the IC50 was found to be 0.18 µM with Leishmania major and 31 µM in series [1]. Besides, in series [2], the selectivity ratio is 172.

Turning to `COc1cc(C)cc2c1C(=O)C=C(c1c(C)c(OC)c3ccc(O)c(OC)c3c1O)C2=O` [BURMANIN C], the IC50 amounted to 0.15 µM in the series with Leishmania major and 22 µM in series [1]. In series [2], the selectivity ratio amounted to 147.

In series [1], `CC(C)C[C@@H](C=O)NC(=O)[C@H](CC(C)C)NC(=O)[C@H](CC(C)C)NC(=O)OCc1ccccc1` [MG-132] (Cbz-Leu-Leu-Leu-aldehyde) gave a concentration for half-maximal inhibition (IC50) of 0.63 µM.
